Measurements published in US6903112B2, “Heterocyclylindazole and -azaindazole compounds as 5-hydroxytryptamine-6 ligands” (Wyeth, priority 2000, dated 2005).

molecular target: T1, human cloned 5-HT6 receptors (Homo sapiens, UniProt P50406); assay: 5-HT6 binding affinity, [3H]-LSD displacement on Hela cell membranes; conditions: [3H]-LSD 3.0 nM; membranes of Hela cells expressing human cloned 5-HT6 receptors; 120 min at room temperature
T1 construct: expressed in transfected cells; host or cells: Hela cells
T1 sequence (P50406 whole entry): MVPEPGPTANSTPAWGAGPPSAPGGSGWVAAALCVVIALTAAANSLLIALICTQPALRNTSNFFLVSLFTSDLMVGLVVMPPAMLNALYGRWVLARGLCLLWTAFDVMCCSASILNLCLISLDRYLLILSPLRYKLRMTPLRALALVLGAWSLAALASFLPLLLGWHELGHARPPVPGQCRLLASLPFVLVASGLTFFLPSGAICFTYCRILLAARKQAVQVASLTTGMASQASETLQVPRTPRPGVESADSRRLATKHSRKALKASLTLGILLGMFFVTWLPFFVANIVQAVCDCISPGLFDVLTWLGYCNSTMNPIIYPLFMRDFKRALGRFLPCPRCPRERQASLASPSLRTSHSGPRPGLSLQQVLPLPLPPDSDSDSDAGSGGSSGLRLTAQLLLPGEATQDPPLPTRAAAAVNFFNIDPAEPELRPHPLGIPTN
Description: The affinity of test compounds for the serotonin 5-HT6 receptor is evaluated in the following manner. Cultured Hela cells expressing human cloned 5-HT6 receptors are harvested and centrifuged at low speed (1,000×g) for 10.0 min to remove the culture media. The harvested cells are suspended in half volume of fresh physiological phosphate buffered saline solution and recentrifuged at the same speed. This operation is repeated. The collected cells are then homogenized in ten volumes of 50 mM Tris.HCl (pH 7.4) and 0.5 mM EDTA. The homogenate is centrifuged at 40,000×g for 30.0 min and the precipitate is collected. The obtained pellet is resuspended in 10 volumes of Tris.HCl buffer and recentrifuged at the same speed. The final pellet is suspended in a small volume of Tris.HCl buffer and the tissue protein content is determined in aliquots of 10-25 μl volumes. Bovine Serum Albumin is used as the standard in the protein determination according to the method described in Lowry et al., J. Biol. Chem., 193:265 (1951). The volume of the suspended cell membranes is adjusted to give a tissue protein concentration of 1.0 mg/ml of suspension. The prepared membrane suspension (10 times concentrated) is aliquoted in 1.0 ml volumes and stored at −70° C. until used in subsequent binding experiments.
Binding experiments are performed in a 96 well microtiter plate format, in a total volume of 200 μl. […] The test compounds are added in 20.0 μl volume.
The reaction is allowed to proceed in the dark for 120 min at room temperature, at which time, the bound ligand-receptor complex is filtered off on a 96 well unifilter with a Packard Filtermate® 196 Harvester. The bound complex caught on the filter disk is allowed to air dry and the radioactivity is measured in a Packard TopCount® equipped with six photomultiplier detectors, after the addition of 40.0 μl Microscint®-20 scintillant to each shallow well. The unifilter plate is heat-sealed and counted in a PackardTopCount® with a tritium efficiency of 31.0%.
Binding in the presence of varying concentrations of test compound is expressed as a percentage of specific binding in the absence of test compound. The results are plotted as log % bound versus log concentration of test compound. […] A linear regression line of data points is plotted, from which the IC50 value is determined and the Ki value is determined based upon the following equation: Ki=IC50/(1+L/KD) where L is the concentration of the radioactive ligand used and KD is the dissociation constant of the ligand for the receptor, both expressed in nM.

| SMILES | Ki |
| --- | --- |
| Cc1ccc(S(=O)(=O)n2cc(C3CCN(Cc4ccccc4)C3)c3ccccc32)cc1 (stereo not drawn) [Example 18, 3-(1-benzylpyrrolidin-3-yl)-1-(4-methylphenylsulfonyl)-1H-indole] | 8 nM |
| Nc1ccc(S(=O)(=O)n2cc(C3CCN(Cc4ccccc4)C3)c3ccccc32)cc1 (stereo not drawn) [Example 20, 1-(4-aminophenylsulfonyl)-3-(1-benzylpyrrolidin-3-yl)-1H-indole] | 1 nM |
| O=S(=O)(c1ccc(Cl)c(Cl)c1)n1cc(C2CCN(Cc3ccccc3)C2)c2ccccc21 (stereo not drawn) [Example 21, 3-(1-benzylpyrrolidin-3-yl)-1-(3,4-dichlorophenyl-sulfonyl)-1H-indole] | 15 nM |
| O=S(=O)(c1ccccc1Br)n1cc(C2CCN(Cc3ccccc3)C2)c2ccccc21 (stereo not drawn) [Example 22, 3-(1-benzylpyrrolidin-3-yl)-1-(2-bromophenylsulfonyl)-1H-indole] | 14 nM |
| Cc1nc(N)sc1S(=O)(=O)n1cc(C2CCN(Cc3ccccc3)C2)c2ccccc21 (stereo not drawn) [Example 23, 5-[3-(1-benzylpyrrolidin-3-yl)-indole-1-sulfonyl]-4-methyl-thiazol-2-ylamine] | 3 nM |
| O=S(=O)(c1ccc(Br)s1)n1cc(C2CCN(Cc3ccccc3)C2)c2ccccc21 (stereo not drawn) [Example 24, 3-(1-benzylpyrrolidin-3-yl)-1-[(5-bromothien-2-yl)sulfonyl]-1H-indole] | 9 nM |
| O=S(=O)(c1ccccc1)n1cc(C2CCCNC2)c2ccccc21 (stereo not drawn) [Example 31, 1-Benzenesulfonyl-3-piperidin-3-yl-1H-indole] | 2 nM |
| CC(C)c1ccc(S(=O)(=O)n2cc(C3CCCNC3)c3ccccc32)cc1 (stereo not drawn) [Example 32, 1-(4-isopropyl-benzenesulfonyl)-3-piperidin-3-yl-1H-indole] | 5 nM |
| O=S(=O)(c1ccc(Cl)s1)n1cc(C2CCCNC2)c2ccccc21 (stereo not drawn) [Example 33, 1-(5-chloro-thiophene-2-sulfonyl)-3-piperidin-3-yl-1H-indole] | 3 nM |
| O=S(=O)(c1cccc(Cl)c1)n1cc(C2CCCNC2)c2ccccc21 (stereo not drawn) [Example 34, 1-(3-chloro-benzenesulfonyl)-3-piperidin-3-yl-1H-indole] | 2 nM |
| O=S(=O)(c1ccc(F)c(F)c1)n1cc(C2CCCNC2)c2ccccc21 (stereo not drawn) [Example 35, 1-(3,4-difluoro-benzenesulfonyl)-3-piperidin-3-yl-1H-indole] | 7 nM |
| COc1ccc(S(=O)(=O)n2cc(C3CCCNC3)c3ccccc32)cc1 (stereo not drawn) [Example 37, 1-(4-methoxy-benzenesulfonyl)-3-piperidin-3-yl-1H-indole] | 10 nM |
| O=S(=O)(c1ccc(C(F)(F)F)cc1)n1cc(C2CCCNC2)c2ccccc21 (stereo not drawn) [Example 38, 1-(4-trifluoromethy-benzenesulfonyl)-3-piperidin-3-yl-1H-indole] | 10 nM |
| Cc1ccc(S(=O)(=O)n2cc(C3CCCNC3)c3ccccc32)cc1Cl (stereo not drawn) [Example 39, 1-(3-chloro-4-methyl-benzenesulfonyl)-3-piperidin-3-yl-1H-indole] | 6 nM |
| O=S(=O)(c1ccc2ccccc2c1)n1cc(C2CCCNC2)c2ccccc21 (stereo not drawn) [Example 41, 1-(2-naphthylenesulfonyl)-3-piperidin-3-yl-1H-indole] | 8 nM |
| O=S(=O)(c1ccc(Cl)s1)n1cc(C2CCCNC2)c2cccnc21 (stereo not drawn) [Example 47, 1-(5-chloro-thiophene-2-sulfonyl)-3-piperidin-3-yl-1H-pyrrolo[2,3-b]pyridine] | 7 nM |
| O=S(=O)(c1cccc(Cl)c1)n1cc(C2CCCNC2)c2cccnc21 (stereo not drawn) [Example 48, 1-(3-chloro-benzenesulfonyl)-3-piperidin-3-yl-1H-pyrrolo[2,3-b]pyridine] | 6 nM |

Second part, the compound after the results:

| Ki | SMILES |
| --- | --- |
| 2 nM | CN1CCC(c2cn(S(=O)(=O)c3ccc(F)cc3)c3ccccc23)C1 (stereo not drawn) [Example 4, 1-(4-fluorophenylsulfonyl)-3-(1-methyl-pyrrolidin-3-yl)-1H-indole] |
| 1 nM | CN1CCC(c2cn(S(=O)(=O)c3ccc(Cl)cc3)c3ccccc23)C1 (stereo not drawn) [Example 6, 1-(4-chlorophenylsulfonyl)-3-(1-methylpyrrolidin-3-yl)-1H-indole] |
| 3 nM | CN1CCC(c2cn(S(=O)(=O)c3ccc4ccccc4c3)c3ccccc23)C1 (stereo not drawn) [Example 8, 1-(naphth-2-ylsulfonyl)-3-(1-methylpyrrolidin-3-yl)-1H-indole] |
| 1 nM | CN1CCC(c2cn(S(=O)(=O)c3ccc(N)cc3)c3ccccc23)C1 (stereo not drawn) [Example 9, 1-(4-aminophenylsulfonyl)-3-(1-methylpyrrolidin-3-yl)-1H-indole] |
| 5 nM | COc1ccc(S(=O)(=O)n2cc(C3CCN(C)C3)c3ccccc32)cc1OC (stereo not drawn) [Example 10, 1-(3,4-dimethoxyphenylsulfonyl)-3-(1-methylpyrrolidin-3-yl)-1H-indole] |
| 3 nM | CN1CCC(c2cn(S(=O)(=O)c3ccc(Cl)c(Cl)c3)c3ccccc23)C1 (stereo not drawn) [Example 11, 1-(3,4-dichlorophenylsulfonyl)-3-(1-methylpyrrolidin-3-yl)-1H-indole] |
| 4 nM | CN1CCC(c2cn(S(=O)(=O)c3cc(Cl)c(Cl)s3)c3ccccc23)C1 (stereo not drawn) [Example 12, 1-[(4,5-dichlorothien-2-yl)sulfonyl]-3-(1-methyl-pyrrolidin-3-yl)-1H-indole] |
| 1 nM | CN1CCC(c2cn(S(=O)(=O)c3ccccc3Br)c3ccccc23)C1 (stereo not drawn) [Example 13, 1-(2-bromophenylsulfonyl)-3-(1-methylpyrrolidin-3-yl)-1H-indole] |
| 1 nM | CN1CCC(c2cn(S(=O)(=O)c3ccc(I)cc3)c3ccccc23)C1 (stereo not drawn) [Example 16, 1-(4-iodophenylsulfonyl)-3-(1-methylpyrrolidin-3-yl)-1H-indole] |
| 2 nM | CN1CCC(c2cn(S(=O)(=O)c3ccccc3I)c3ccccc23)C1 (stereo not drawn) [Example 17, 1-(2-iodophenylsulfonyl)-3-(1-methylpyrrolidin-3-yl)-1H-indole] |
